{"source": "patent US8143263B2", "about": "“Therapeutic agents” (Astrazeneca AB, priority 2008, dated 2012)"}
{"target": "T1, recombinant human pancreatic GLK (Homo sapiens, UniProt P35557)", "T1 sequence (P35557 1-465)": "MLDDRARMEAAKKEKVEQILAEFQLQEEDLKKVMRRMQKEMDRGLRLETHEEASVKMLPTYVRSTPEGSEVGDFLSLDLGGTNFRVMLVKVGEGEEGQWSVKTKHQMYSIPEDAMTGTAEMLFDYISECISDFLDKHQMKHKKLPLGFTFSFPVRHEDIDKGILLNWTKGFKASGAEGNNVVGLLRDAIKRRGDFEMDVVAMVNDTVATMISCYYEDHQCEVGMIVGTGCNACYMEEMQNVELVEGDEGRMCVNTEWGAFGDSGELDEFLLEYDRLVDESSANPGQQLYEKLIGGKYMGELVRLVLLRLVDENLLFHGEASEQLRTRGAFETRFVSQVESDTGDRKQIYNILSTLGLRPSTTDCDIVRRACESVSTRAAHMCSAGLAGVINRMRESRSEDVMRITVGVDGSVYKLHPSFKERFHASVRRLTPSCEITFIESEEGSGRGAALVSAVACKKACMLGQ", "assay": "biochemical", "units": {"EC50": "nM"}}
{"compound": "COCC(Oc1ncnc2c1cnn2-c1ccccc1OC)C(=O)Nc1ccc(C)cn1", "note": "(centres unmarked) [Example 4, 3-methoxy-2-{[1-(2-methoxyphenyl)-1H-pyrazolo[3,4-d]pyrimidin-4-yl]oxy}-N-(5-methylpyridin-2-yl)propanamide]", "EC50": 3400}
{"compound": "CNC(=O)CCC(Oc1ncnc2c1cnn2-c1ccccc1Cl)C(=O)Nc1ccc(C)cn1", "note": "(centres unmarked) [Example 51, 2-{[1-(2-chlorophenyl)-1H-pyrazolo[3,4-d]pyrimidin-4-yl]oxy}-N5-methyl-N1-(5-methylpyridin-2-yl)pentanediamide]", "EC50": 4400}
{"compound": "COCC[C@H](Oc1ncnc2c1cnn2-c1ccccc1OC)C(=O)Nc1nc(C)cs1", "note": "[Example 37, (S)-4-methoxy-2-{[1-(2-methoxyphenyl)-1H-pyrazolo[3,4-d]pyrimidin-4-yl]oxy}-N-(4-methyl-1,3-thiazol-2-yl)butanamide]", "EC50": 1300}
{"compound": "Cc1ccc(NC(=O)[C@H](COC(C)C)Oc2ncnc3c2cnn3-c2ncccc2C(F)(F)F)nc1", "note": "[Example 126, (2S)-3-Isopropoxy-N-(5-methylpyridin-2-yl)-2-(1-(3-(trifluoromethyl)pyridin-2-yl)-1H-pyrazolo[3,4-d]pyrimidin-4-yloxy)propanamide]", "EC50": 570}
{"compound": "O=C(Nc1ccc(F)cn1)[C@H](COCCO)Oc1ncnc2c1cnn2-c1ccccc1Cl", "note": "[Example 248, (2S)-2-[1-(2-chlorophenyl)pyrazolo[3,4-d]pyrimidin-4-yl]oxy-N-(5-fluoro-2-pyridyl)-3-(2-hydroxyethoxy)propanamide]", "EC50": 640}
{"compound": "CC(C)OCC(Oc1ncnc2c1cnn2-c1ccccc1Cl)C(=O)Nc1ccccn1", "note": "(centres unmarked) [Example 118, 2-[1-(2-chlorophenyl)pyrazolo[4,5-e]pyrimidin-4-yl]oxy-3-isopropoxy-N-(2-pyridyl)propanamide]", "EC50": 150}
{"compound": "Cc1ccc(NC(=O)C(CCC(N)=O)Oc2ncnc3c2cnn3-c2ccccc2Cl)nc1", "note": "(centres unmarked) [Example 50, 2-{[1-(2-chlorophenyl)-1H-pyrazolo[3,4-d]pyrimidin-4-yl]oxy}-N1-(5-methylpyridin-2-yl)pentanediamide]", "EC50": 590}
{"compound": "N#Cc1ccc(NC(=O)[C@H](CCO)Oc2ncnc3c2cnn3-c2ncccc2Cl)nc1", "note": "[Example 143e, (2S)-2-[1-(3-chloro-2-pyridyl)pyrazolo[4,5-e]pyrimidin-4-yl]oxy-N-(5-cyano-2-pyridyl)-4-hydroxy-butanamide]", "EC50": 530}
{"compound": "COCC[C@@H](Oc1ncnc2c1cnn2-c1ccc(F)cc1F)C(=O)Nc1ccc(C)cn1", "note": "[Example 26, (R)-2-{[1-(2,4-Difluorophenyl)-1H-pyrazolo[3,4-d]pyrimidin-4-yl]oxy}-4-methoxy-N-(5-methylpyridin-2-yl)butanamide]", "EC50": 35000}
{"compound": "Cc1nnc(NC(=O)C(COC(C)C)Oc2ncnc3c2cnn3-c2ccccc2Cl)s1", "note": "(centres unmarked) [Example 109, 2-[1-(2-chlorophenyl)pyrazolo[4,5-e]pyrimidin-4-yl]oxy-3-isopropoxy-N-(5-methyl-1,3,4-thiadiazol-2-yl)propanamide]", "EC50": 3200}
{"compound": "CC(C)OC[C@H](Oc1ncnc2c1cnn2-c1ncccc1Cl)C(=O)Nc1ccc(C#N)cn1", "note": "[Example 127j, (2S)-2-[1-(3-chloro-2-pyridyl)pyrazolo[4,5-e]pyrimidin-4-yl]oxy-N-(5-cyano-2-pyridyl)-3-isopropoxy-propanamide]", "EC50": 580}
{"compound": "CCOC[C@H](Oc1ncnc2c1cnn2-c1ncccc1Cl)C(=O)Nc1ccc(S(C)(=O)=O)cn1", "note": "[Example 139, (2S)-2-(1-(3-chloropyridin-2-yl)-1H-pyrazolo[3,4-d]pyrimidin-4-yloxy)-3-ethoxy-N-(5-(methylsulfonyl)pyridin-2-yl)propanamide]", "EC50": 1400}
{"compound": "COC[C@H](Oc1ncnc2c1cnn2-c1ccccc1Cl)C(=O)Nc1nc(C)ns1", "note": "[Example 101, (2S)-2-(1-(2-Chlorophenyl)-1H-pyrazolo[3,4-d]pyrimidin-4-yloxy)-3-methoxy-N-(3-methyl-1,2,4-thiadiazol-5-yl)propanamide]", "EC50": 5000}
{"compound": "Cc1c(F)cccc1-n1ncc2c(O[C@@H](COCCO)C(=O)Nc3ccc(C#N)cn3)ncnc21", "note": "[Example 168, (2S)—N-(5-cyanopyridin-2-yl)-2-[1-(3-fluoro-2-methylphenyl)pyrazolo[4,5-e]pyrimidin-4-yl]oxy-3-(2-hydroxyethoxy)propanamide]", "EC50": 3900}
{"compound": "Cc1ccc(NC(=O)[C@H](CO[C@H](C)CO)Oc2ncnc3c2cnn3-c2c(Cl)cccc2C#N)nc1", "note": "[Example 175, (2S)-2-(1-(2-chloro-6-cyanophenyl)-1H-pyrazolo[3,4-d]pyrimidin-4-yloxy)-3-((R)-1-hydroxypropan-2-yloxy)-N-(5-methylpyridin-2-yl)propanamide]", "EC50": 270}
{"compound": "Cc1ccc(NC(=O)[C@@H](Oc2ncnc3c2cnn3-c2ccccc2Cl)C(C)C)nc1", "note": "[Example 84, (2S)-2-(1-(2-chlorophenyl)-1H-pyrazolo[3,4-d]pyrimidin-4-yloxy)-3-methyl-N-(5-methylpyridin-2-yl)butanamide]", "EC50": 470}
{"compound": "CC(C)OCC(Oc1ncnc2c1cnn2-c1ccccc1Cl)C(=O)Nc1ccc(C#N)cn1", "note": "(centres unmarked) [Example 113, 2-[1-(2-chlorophenyl)pyrazolo[4,5-e]pyrimidin-4-yl]oxy-N-(5-cyano-2-pyridyl)-3-isopropoxy-propanamide]", "EC50": 300}
{"compound": "CCOC(Sc1ncnc2c1cnn2-c1ccccc1OC)C(=O)Nc1ccon1", "note": "(centres unmarked) [Example 72, 2-Ethoxy-N-isoxazol-3-yl-2-{[1-(2-methoxyphenyl)-1H-pyrazolo[3,4-d]pyrimidin-4-yl]thio}acetamide]", "EC50": 2900}
{"compound": "CCC(C)C(Sc1ncnc2c1cnn2-c1ccccc1Cl)C(=O)Nc1ccc(C)cn1", "note": "(centres unmarked) [Example 56, 2-{[1-(2-chlorophenyl)-1H-pyrazolo[3,4-d]pyrimidin-4-yl]thio}-3-methyl-N-(5-methylpyridin-2-yl)pentanamide]", "EC50": 3100}
{"compound": "COC[C@H](C)OC[C@H](Oc1ncnc2c1cnn2-c1ccccc1Cl)C(=O)Nc1ccc(C)cn1", "note": "[Example 152, (2S)-2-(1-(2-chlorophenyl)-1H-pyrazolo[3,4-d]pyrimidin-4-yloxy)-3-((S)-1-methoxypropan-2-yloxy)-N-(5-methylpyridin-2-yl)propanamide]", "EC50": 490}
{"compound": "Cc1ccc(NC(=O)[C@H](COC(C)C)Oc2ncnc3c2cnn3-c2ncccc2Cl)nn1", "note": "[Example 127, (2S)-2-[1-(3-chloro-2-pyridyl)pyrazolo[4,5-e]pyrimidin-4-yl]oxy-3-isopropoxy-N-(6-methylpyridazin-3-yl)propanamide]", "EC50": 6000}
{"compound": "Cc1ccc(NC(=O)[C@H](CCCO)Oc2ncnc3c2cnn3-c2ncccc2Cl)nc1", "note": "[Example 131, (2S)-2-[1-(3-chloropyridin-2-yl)pyrazolo[4,5-e]pyrimidin-4-yl]oxy-5-hydroxy-N-(5-methylpyridin-2-yl)pentanamide]", "EC50": 410}
{"compound": "CCOC[C@H](Oc1ncnc2c1cnn2-c1ccccc1Cl)C(=O)Nc1cnc(C)cn1", "note": "[Example 105, (2S)-2-[1-(2-chlorophenyl)pyrazolo[4,5-e]pyrimidin-4-yl]oxy-3-ethoxy-N-(5-methylpyrazin-2-yl)propanamide]", "EC50": 510}
{"compound": "COCC[C@@H](Oc1ncnc2c1cnn2-c1ccccc1C)C(=O)Nc1ccc(C)cn1", "note": "[Example 18, (R)-4-methoxy-2-{[1-(2-methylphenyl)-1H-pyrazolo[3,4-d]pyrimidin-4-yl]oxy}-N-(5-methylpyridin-2-yl)butanamide]", "EC50": 32000}
{"compound": "O=C(Nc1ccccn1)[C@H](CN1CC(O)C1)Oc1ncnc2c1cnn2-c1ccccc1Cl", "note": "[Example 225, (2S)-2-[1-(2-chlorophenyl)pyrazolo[3,4-d]pyrimidin-4-yl]oxy-3-(3-hydroxyazetidin-1-yl)-N-(2-pyridyl)propanamide]", "EC50": 220}
{"compound": "Cc1ccc(NC(=O)[C@H](COC(C)C)Oc2ncnc3c2cnn3-c2ncccc2C)nc1", "note": "[Example 125, (2S)-3-Isopropoxy-N-(5-methylpyridin-2-yl)-2-(1-(3-methylpyridin-2-yl)-1H-pyrazolo[3,4-d]pyrimidin-4-yloxy)propanamide]", "EC50": 310}
{"compound": "Cc1ccc(F)cc1-n1ncc2c(O[C@@H](COCCO)C(=O)Nc3ccc(C#N)cn3)ncnc21", "note": "[Example 182, (2S)—N-(5-cyanopyridin-2-yl)-2-(1-(5-fluoro-2-methylphenyl)-1H-pyrazolo[3,4-d]pyrimidin-4-yloxy)-3-(2-hydroxyethoxy)propanamide]", "EC50": 3000}
{"compound": "COCCC(Oc1ncnc2c1cnn2-c1ccccc1C)C(=O)Nc1ccc(C)cn1", "note": "(centres unmarked) [Example 16, 4-methoxy-2-{[1-(2-methylphenyl)-1H-pyrazolo[3,4-d]pyrimidin-4-yl]oxy}-N-(5-methylpyridin-2-yl)butanamide]", "EC50": 290}
{"compound": "Cc1ccc(NC(=O)[C@H](COC(C)C)Oc2ncnc3c2cnn3-c2nccn2C)nc1", "note": "[Example 211, (2S)-3-isopropoxy-2-(1-(1-methyl-1H-imidazol-2-yl)-1H-pyrazolo[3,4-d]pyrimidin-4-yloxy)-N-(5-methylpyridin-2-yl)propanamide]", "EC50": 1100}
{"compound": "Cc1nsc(NC(=O)[C@H](COC(C)C)Oc2ncnc3c2cnn3-c2ncccc2Cl)n1", "note": "[Example 93, (2S)-2-(1-(3-chloropyridin-2-yl)-1H-pyrazolo[3,4-d]pyrimidin-4-yloxy)-3-isopropoxy-N-(3-methyl-1,2,4-thiadiazol-5-yl)propanamide]", "EC50": 3300}
{"compound": "Cc1ccc(NC(=O)[C@H](COC(C)C)Oc2ncnc3c2cnn3-c2ncccc2Cl)nc1", "note": "[Example 91, (2S)-2-(1-(3-chloropyridin-2-yl)-1H-pyrazolo[3,4-d]pyrimidin-4-yloxy)-3-isopropoxy-N-(5-methylpyridin-2-yl)propanamide]", "EC50": 160}
{"compound": "CC(C)OCC(Oc1ncnc2c1cnn2-c1ccccc1Cl)C(=O)Nc1ccncn1", "note": "(centres unmarked) [Example 120, 2-[1-(2-chlorophenyl)pyrazolo[4,5-e]pyrimidin-4-yl]oxy-3-isopropoxy-N-pyrimidin-4-yl-propanamide]", "EC50": 540}
